# Measured values as given in US12649746B2, “Ketorolaco derivative, pharmaceutical composition and preparation method therefor and use thereof” (NANJING HERON PHARMACEUTICAL SCIENCE AND TECHNOLOGY CO., …, priority 2020, dated 2026).
# Assay: High temperature stability study of compounds (60° C.)
# Assay type: physicochemical
# Conditions: in the dark, Day 0
# Experimental: Test protocol: the compounds prepared in the present disclosure were placed in a colorless and transparent vial, placed in the dark at a high temperature (60° C.), and were sampled for day 0, day 5 and day 10, respectively, and the purity of the compounds and the change of the related substance (ketorolac) were determined.
row,SMILES,Total main peak purity (%)
1,CCOC(=O)OC(OC(=O)C1CCn2c(C(=O)c3ccccc3)ccc21)C(C)C (centres unmarked) [N18],94.25%

# Same assay, conditions: in the dark, Day 5
row,SMILES,Total main peak purity (%)
1,CCOC(=O)OC(OC(=O)C1CCn2c(C(=O)c3ccccc3)ccc21)C(C)C (centres unmarked) [N18],92.10%

# Same assay, conditions: in the dark, Day 10
row,SMILES,Total main peak purity (%)
1,CCOC(=O)OC(OC(=O)C1CCn2c(C(=O)c3ccccc3)ccc21)C(C)C (centres unmarked) [N18],91.78%

# Same assay, conditions: related substance, in the dark, Day 0
row,SMILES,Ketorolac (%)
1,CCOC(=O)OC(OC(=O)C1CCn2c(C(=O)c3ccccc3)ccc21)C(C)C (centres unmarked) [N18],0.06%

# Same assay, conditions: related substance, in the dark, Day 5
row,SMILES,Ketorolac (%)
1,CCOC(=O)OC(OC(=O)C1CCn2c(C(=O)c3ccccc3)ccc21)C(C)C (centres unmarked) [N18],0.18%

# Same assay, conditions: related substance, in the dark, Day 10
row,SMILES,Ketorolac (%)
1,CCOC(=O)OC(OC(=O)C1CCn2c(C(=O)c3ccccc3)ccc21)C(C)C (centres unmarked) [N18],0.26%

# Assay: By-product toxicity test (metabolic byproducts in the human body)
# Conditions: by the metabolic pathways of the compounds in the human body
row,SMILES,Metabolic by-products in human body
1,COC(=O)OC(C)OC(=O)C1CCn2c(C(=O)c3ccccc3)ccc21 (centres unmarked) [N13],Acetaldehyde and methanol

# Same assay, conditions: toxicity of the metabolic by-products in human body
row,SMILES,Toxicity
1,COC(=O)OC(C)OC(=O)C1CCn2c(C(=O)c3ccccc3)ccc21 (centres unmarked) [N13],Methanol is more toxic

# Assay: Stability study of levorotatory enantiomer of compounds in solvent (MCT)
# Assay type: physicochemical
# Conditions: MCT solution, 5° C., Day 5
# Experimental: 2. Test method: the samples were prepared according to Table 2, wherein each sample was dispensed into 10 vials according to the lofting volume, and the samples were lofted according to Table 3.
# 4. The related substance was determined according to high performance liquid chromatography (General Chapter 0512, China Pharmacopoeia, 2015 Edition).
# (1) Chromatographic conditions: the chromatography column was Agilent ZORBAX SB-C8, 4.6 mm×250 mm, 5 μm, and 0.1% phosphoric acid solution-acetonitrile (50:50) was used as a mobile phase; the detection wavelength was […]; the flow rate was 1.0 mL/min; the column temperature was 40° C., and linear gradient elution was performed according to the following table;
# (§1) (2) Determination method: an appropriate amount of the product was weighed precisely, a diluent (absolute ethanol) was added and shaken to dissolve, and quantitatively diluted to give a solution containing 0.4 mg per 1 mL, the solution was […] by vortex for 30 s, and filtered with PTFE filter membrane (0.22 μm, JINTENG), and the filtrate was collected as a test sample solution. 10 μL of the solution was weighed precisely and injected into a liquid chromatograph, and a chromatogram was recorded; if an impurity peak existed in the chromatogram of the test sample solution, calculation was performed according to a peak area normalization method to give the target product.
# 5. Isomer determination was performed according to high performance liquid chromatography (General Chapter 0512, China Pharmacopoeia, 2015 Edition).
# (1) Chromatographic conditions: cellulose-tris(3,5-dimethylphenylcarbamate)silica gel was used as filler (Chiralcel OD-H, 250×4.6 mm, 5 μm); n-hexane-isopropanol (90:10) was used as a mobile phase, and isocratic elution was performed for 25 min at a flow rate of 1.0 mL/min; the column temperature was 35° C.; the detection wavelength was 310 nm.
# as §1, with “(n-hexane-isopropanol (90:10))” for “(absolute ethanol)”, “about 1.0” for “0.4”, “20” for “10”, “isomer” for “impurity”
Ketorolac (%),Purity (%),SMILES
0.03%,99.55%,CCC(OC(=O)OC(C)C)OC(=O)[C@H]1CCn2c(C(=O)c3ccccc3)ccc21 (stereo partly drawn) [N16(S)]

# Same assay, conditions: MCT solution, 5° C., Day 15
Ketorolac (%),Purity (%),SMILES
0.02%,99.65%,CCC(OC(=O)OC(C)C)OC(=O)[C@H]1CCn2c(C(=O)c3ccccc3)ccc21 (stereo partly drawn) [N16(S)]

# Same assay, conditions: MCT solution, 5° C., Day 30
Ketorolac (%),Purity (%),SMILES
0.03%,99.52%,CCC(OC(=O)OC(C)C)OC(=O)[C@H]1CCn2c(C(=O)c3ccccc3)ccc21 (stereo partly drawn) [N16(S)]

# Same assay, conditions: MCT solution, 5° C., day 0
Ketorolac (%),Purity (%),SMILES
0.02%,99.71%,CCC(OC(=O)OC(C)C)OC(=O)[C@H]1CCn2c(C(=O)c3ccccc3)ccc21 (stereo partly drawn) [N16(S)]

# Same assay, conditions: MCT solution, 25° C., Day 5
Ketorolac (%),Purity (%),SMILES
0.03%,99.52%,CCC(OC(=O)OC(C)C)OC(=O)[C@H]1CCn2c(C(=O)c3ccccc3)ccc21 (stereo partly drawn) [N16(S)]

# Same assay, conditions: MCT solution, 25° C., Day 15
Ketorolac (%),Purity (%),SMILES
0.03%,99.63%,CCC(OC(=O)OC(C)C)OC(=O)[C@H]1CCn2c(C(=O)c3ccccc3)ccc21 (stereo partly drawn) [N16(S)]

# Same assay, conditions: MCT solution, 25° C., Day 30
Ketorolac (%),Purity (%),SMILES
0.04%,99.48%,CCC(OC(=O)OC(C)C)OC(=O)[C@H]1CCn2c(C(=O)c3ccccc3)ccc21 (stereo partly drawn) [N16(S)]

# Same assay, conditions: MCT solution, 25° C., day 0
Ketorolac (%),Purity (%),SMILES
0.02%,99.71%,CCC(OC(=O)OC(C)C)OC(=O)[C@H]1CCn2c(C(=O)c3ccccc3)ccc21 (stereo partly drawn) [N16(S)]

# Same assay, conditions: MCT solution, 60° C., Day 5
Ketorolac (%),Purity (%),SMILES
0.05%,99.52%,CCC(OC(=O)OC(C)C)OC(=O)[C@H]1CCn2c(C(=O)c3ccccc3)ccc21 (stereo partly drawn) [N16(S)]

# Same assay, conditions: MCT solution, 60° C., Day 15
Ketorolac (%),Purity (%),SMILES
0.12%,99.51%,CCC(OC(=O)OC(C)C)OC(=O)[C@H]1CCn2c(C(=O)c3ccccc3)ccc21 (stereo partly drawn) [N16(S)]

# Same assay, conditions: MCT solution, 60° C., Day 30
Ketorolac (%),Purity (%),SMILES
0.24%,99.27%,CCC(OC(=O)OC(C)C)OC(=O)[C@H]1CCn2c(C(=O)c3ccccc3)ccc21 (stereo partly drawn) [N16(S)]

# Same assay, conditions: MCT solution, 60° C., day 0
Ketorolac (%),Purity (%),SMILES
0.02%,99.71%,CCC(OC(=O)OC(C)C)OC(=O)[C@H]1CCn2c(C(=O)c3ccccc3)ccc21 (stereo partly drawn) [N16(S)]

# Same assay, conditions: dextrorotatory form, MCT solution, 5° C., Day 5
row,Isomer (%),SMILES
1,2.47%,CCC(OC(=O)OC(C)C)OC(=O)[C@H]1CCn2c(C(=O)c3ccccc3)ccc21 (stereo partly drawn) [N16(S)]

# Same assay, conditions: dextrorotatory form, MCT solution, 5° C., Day 15
row,Isomer (%),SMILES
1,2.6%,CCC(OC(=O)OC(C)C)OC(=O)[C@H]1CCn2c(C(=O)c3ccccc3)ccc21 (stereo partly drawn) [N16(S)]

# Same assay, conditions: dextrorotatory form, MCT solution, 5° C., Day 30
row,Isomer (%),SMILES
1,2.58%,CCC(OC(=O)OC(C)C)OC(=O)[C@H]1CCn2c(C(=O)c3ccccc3)ccc21 (stereo partly drawn) [N16(S)]

# Same assay, conditions: dextrorotatory form, MCT solution, 5° C., day 0
row,Isomer (%),SMILES
1,2.46%,CCC(OC(=O)OC(C)C)OC(=O)[C@H]1CCn2c(C(=O)c3ccccc3)ccc21 (stereo partly drawn) [N16(S)]

# Same assay, conditions: dextrorotatory form, MCT solution, 25° C., Day 5
row,Isomer (%),SMILES
1,2.47%,CCC(OC(=O)OC(C)C)OC(=O)[C@H]1CCn2c(C(=O)c3ccccc3)ccc21 (stereo partly drawn) [N16(S)]

# Same assay, conditions: dextrorotatory form, MCT solution, 25° C., Day 15
row,Isomer (%),SMILES
1,2.6%,CCC(OC(=O)OC(C)C)OC(=O)[C@H]1CCn2c(C(=O)c3ccccc3)ccc21 (stereo partly drawn) [N16(S)]

# Same assay, conditions: dextrorotatory form, MCT solution, 25° C., Day 30
row,Isomer (%),SMILES
1,2.59%,CCC(OC(=O)OC(C)C)OC(=O)[C@H]1CCn2c(C(=O)c3ccccc3)ccc21 (stereo partly drawn) [N16(S)]

# Same assay, conditions: dextrorotatory form, MCT solution, 25° C., day 0
row,Isomer (%),SMILES
1,2.46%,CCC(OC(=O)OC(C)C)OC(=O)[C@H]1CCn2c(C(=O)c3ccccc3)ccc21 (stereo partly drawn) [N16(S)]

# Same assay, conditions: dextrorotatory form, MCT solution, 60° C., Day 5
row,Isomer (%),SMILES
1,2.48%,CCC(OC(=O)OC(C)C)OC(=O)[C@H]1CCn2c(C(=O)c3ccccc3)ccc21 (stereo partly drawn) [N16(S)]

# Same assay, conditions: dextrorotatory form, MCT solution, 60° C., Day 15
row,Isomer (%),SMILES
1,2.61%,CCC(OC(=O)OC(C)C)OC(=O)[C@H]1CCn2c(C(=O)c3ccccc3)ccc21 (stereo partly drawn) [N16(S)]

# Same assay, conditions: dextrorotatory form, MCT solution, 60° C., Day 30
row,Isomer (%),SMILES
1,2.63%,CCC(OC(=O)OC(C)C)OC(=O)[C@H]1CCn2c(C(=O)c3ccccc3)ccc21 (stereo partly drawn) [N16(S)]

# Same assay, conditions: dextrorotatory form, MCT solution, 60° C., day 0
row,Isomer (%),SMILES
1,2.46%,CCC(OC(=O)OC(C)C)OC(=O)[C@H]1CCn2c(C(=O)c3ccccc3)ccc21 (stereo partly drawn) [N16(S)]
